Columns and labels:
NK2 receptor [1] = experiment: Antagonism of NKA aerosol induced respiratory effects in conscious guinea pigs; format: in vivo, guinea pig; conditions: 20 min prior to NKA aerosol (0.05%); for DYSPNEA ONSET: mean and SEM
Procedure: ANTAGONISM OF NKA AND CAPSAICIN INDUCED R[…] IN CONSCIOUS GUINEA PIGS
In vivo experiments were performed using male Duncan Hartley guinea pigs (250-350 g). Changes in conscious breathing patterns were monitored in four animals simultaneously using modified whole body plethysmography consisting of four small plexiglass boxes each connected to a reference box via Validyne DP 45-16 differential pressure transducers. The 4 boxes were equipped with an air supply line (also used for aerosol delivery) and an exhaust air line. Supply and exhaust lines were of the same length and narrow bore and arose from a common supply chamber and vented to a common exhaust chamber. This system was used to ensure that fluctuations in supply air and atmospheric pressure would remain in phase and be eliminated from the net signal by the differential pressure transducers. The analog pressure signals were digitalized via a Data Translation DT2821 A to D board. Data were collected at a rate of 100 samples/second/animal. Each cycle of pressure change was analyzed using the following parameters: rising and falling slope determined between minimum and maximum pressures, the ratio of rising over falling slope, and the magnitude of the change between initial trough pressure and peak cycle pressure. Using these values (and observing the animals) the pressure cycles were characterized into normal breaths, forced exhalations (apparent by abdominal heaving), significant respiratory events (SREs; usually coughs, less often sneezes or gasps which were characterized by transient, extremely large pressure increases which were distinguishable from noise) and movement/noise with a PCAT 286 running a System V UNIX operating system. Dyspnea was defined as a significant, sustained increase in plethysmograph pressure which was associated with an observable shift to labored breathing in the animal.
During the course of a typical experiment in which airway responsiveness to various bronchoconstricting agents was examined, aerosols were delivered for 19 min (0.33 ml/min) using a DeVilbiss Ultraneb 99 ultrasonic nebulizer and animals monitored during this time. Prior to nebulization, 1 min of resting breathing was collected to establish a baseline pressure. […] The vehicle for nebulization of all bronchoconstrictive agents was phosphate buffered saline (pH 7.4) which elicited no r[…] itself. Putative tachykinin antagonists were administered either (i.v.) 20 min prior to onset of aerosol exposure or orally 1 hour prior to onset (to guinea pigs after an overnight fast).
Table 6 illustrates the effects of the compounds of Example 3; Example 20A; and Example 5A on r[…] induced by NKA aerosol. […] These effects were dose dependent i.e. the higher the dose of compound, the greater attenuation of NKA-mediated effects.

NK2 receptor [2] = target: T1, NK2 receptor (Bos taurus, UniProt P05363); experiment: Antagonism of NK2 receptor mediated (NKA-induced) phosphatidylinositol turnover in SKLKB82#3 cells; format: cell-based
T1 construct: expressed in transfected cells; host or cells: SKLKB82#3 cells (murine B82 fibroblasts by own knowledge)
T1 sequence (P05363 1-384): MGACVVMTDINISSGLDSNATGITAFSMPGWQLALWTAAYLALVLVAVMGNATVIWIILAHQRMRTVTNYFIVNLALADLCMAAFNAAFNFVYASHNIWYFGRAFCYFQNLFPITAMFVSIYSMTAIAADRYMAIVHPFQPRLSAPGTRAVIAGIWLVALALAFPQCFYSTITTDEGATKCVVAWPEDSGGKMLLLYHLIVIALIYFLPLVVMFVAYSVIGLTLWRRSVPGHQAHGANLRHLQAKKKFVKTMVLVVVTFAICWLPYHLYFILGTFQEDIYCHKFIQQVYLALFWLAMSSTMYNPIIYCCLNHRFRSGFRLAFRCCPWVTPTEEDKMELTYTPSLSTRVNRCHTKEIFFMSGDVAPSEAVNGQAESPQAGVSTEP
Procedure: (§1) ANTAGONISM OF NK1 AND NK2 RECEPTOR MEDIATED PHOSPHATID[…]
(§2) Tachykinin-mediated inositol phosphate accumulation was measured in UC11 or SKLKB82#3 cells in the presence and absence of NK1 or NK2 receptor antagonists, respectively. Tissues were incubated in Krebs-Henseleit buffer at 37° C. with 95% O2 -5% CO2 gassing. Tissues were then incubated with fresh buffer containing 100 μCi of myo-[2-^3 H(N)] inositol at 37° C. for 60 min with gentle gassing. After washing twice in 5 ml room temperature buffer containing 10 mM LiCl, tissues were incubated for 30 min at room temperature with a buffer change at 15 min. Buffer was removed and Krebs-Henseleit buffer (containing 40 μg/ml bacitracin, 4 μg/ml each of leupeptin and chymostatin, 0.1% bovine serum albumin and 10 mM each of thiorphan and LiCl) added. After 15 min, SP was added to UC11 cells or NKA to SKLKB82#3 cells at various concentrations to start the reaction. After incubation for 60 min at room temperature the reaction was terminated by addition of 930 μl chloroform: methanol (1:2 by volume) to each tube, followed by 310 μl chloroform and 310 μl doubly distilled water. Samples were vortexed, centrifuged, and 0.9 ml of the aqueous (top) phase removed and added to 2 ml ddH2 O. The mixture was vortexed and loaded onto a 50% Bio-Rad AG 1-X8 (formate form, 100-200 mesh) exchange column (Bio-Rad Laboratories, Hercules, Calif.). The columns were washed, in order, with: 1) 10 ml doubly distilled water, 2) 5 ml of 5 mM disodium tetraborate/60 mM sodium formate, and 3) 5 ml of 1M ammonium formate/0.1M formic acid. The third elution was collected and 1 ml counted in 7 ml scintillation fluid. A 50 μl aliquot of the organic (bottom) phase was removed, dried in a scintillation vial and counted in 7 ml scintillation fluid.
(§3) The ratio of DPM in the aqueous phase aliquot (total inositol phosphates) to the DPM in the 50 μl organic phase aliquot (total [^3 H]inositol incorporated) was calculated for each sample. Data are expressed as a percent of agonist-induced accumulation of [^3 H]-inositol phosphates over basal levels. The ratios in the presence of test compound and/or standards were compared to the ratios for control samples (i.e. no stimulating agonist). Dose-response graphs were constructed and the abilities of the test compounds to inhibit tachykinin-induced phosphatidyinositol turnover determined with the aid of a computer program. […] Data is expressed as percent stimulation of total inositol phosphate accumulation over basal levels and normalized to the maximum response produced by SP. […] Schild analysis is performed using dose response curves (such as those presented in FIGS. 1a and 1b) to obtain a value indicative of the strength of a competitive antagonist and is expressed as the pA2, which is the negative logarithm of the molar concentration of antagonist which reduces the effect of a dose of agonist to one-half of that expected at the dose of agonist.

NK1 receptor = target: T2, NK1 receptor (Homo sapiens, UniProt P25103); experiment: Antagonism of NK1 receptor mediated (SP-induced) phosphatidylinositol turnover in UC11 cells; format: cell-based
T2 construct: endogenous in cells; host or cells: UC11 cells
T2 sequence (P25103 whole entry): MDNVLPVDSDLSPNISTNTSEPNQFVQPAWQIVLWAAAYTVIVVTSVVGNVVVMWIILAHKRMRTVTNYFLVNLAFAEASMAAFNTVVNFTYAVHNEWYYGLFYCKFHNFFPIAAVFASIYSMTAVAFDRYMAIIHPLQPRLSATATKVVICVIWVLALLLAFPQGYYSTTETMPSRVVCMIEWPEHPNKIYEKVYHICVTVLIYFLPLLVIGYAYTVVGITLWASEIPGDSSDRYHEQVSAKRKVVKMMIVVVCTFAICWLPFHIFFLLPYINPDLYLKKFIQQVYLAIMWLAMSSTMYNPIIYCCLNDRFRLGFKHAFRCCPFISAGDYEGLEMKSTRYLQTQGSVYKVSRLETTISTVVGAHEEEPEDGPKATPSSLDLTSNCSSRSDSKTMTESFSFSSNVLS
Procedure: as §1, §2, §3

COc1cc(C(=O)N2CCC(CCN3CCC(C(N)=O)(c4ccccc4)CC3)(c3ccc(Cl)c(Cl)c3)C2)cc(OC)c1OC (centres unmarked) [Example 3, 1-[2-[3-(3,4-dichloro-phenyl)-1-(3,4,5-trimethoxy-benzoyl)-pyrrolidin-3-yl]-ethyl]-4-phenyl-piperidine-4-carboxylic acid amide]
DYSPNEA INCIDENCE (NK2 receptor [1]; 5 mg/kg): 86% | DYSPNEA ONSET (NK2 receptor [1]; 5 mg/kg): 394 ± 32 s | DYSPNEA INCIDENCE (NK2 receptor [1]; 10 mg/kg): 60% | DYSPNEA ONSET (NK2 receptor [1]; 10 mg/kg): 801 ± 104 s | antagonism of NKA induced PI turnover (in words, FIG. 1b) (NK2 receptor [2]; SKLKB82#3 cells): dose related antagonism | agonist activity, PI turnover in SKLKB82#3 cells (in words) (NK2 receptor [2]; compound alone): no agonist activity | antagonism of SP induced PI turnover (in words, FIG. 1a) (NK1 receptor; UC11 cells): dose related antagonism | agonist activity, PI turnover in UC11 cells (in words) (NK1 receptor; compound alone): no agonist activity
